Measured values: the NIST ThermoML archive (doi:10.1016/j.jct.2014.03.022)
Numbers after ± are expanded uncertainties.

Experiments:
[1] = for surface tension liquid-gas: Wilhelmy plate method; for viscosity: 101.3 kPa, Liquid, Concentric cylinders viscometry
[2] = refractive index (Na D-line) (dimensionless); details: 293.15 K; 101.33 kPa; Liquid; Standard Abbe refractometry
[3] = xn = mol fraction of the nth substance listed; details: x1 = 1; for surface tension liquid-gas: Wilhelmy plate method; for viscosity: 101.3 kPa, Liquid, Concentric cylinders viscometry

| surface tension liquid-gas ([1]; 298.15 K) | viscosity ([1]; 298.15 K) | surface tension liquid-gas ([1]; 303.15 K) | viscosity ([1]; 303.15 K) | surface tension liquid-gas ([1]; 308.15 K) | viscosity ([1]; 308.15 K) | surface tension liquid-gas ([1]; 313.15 K) | viscosity ([1]; 313.15 K) | refractive index [2] | surface tension liquid-gas ([3]; 298.15 K) | viscosity ([3]; 298.15 K) | surface tension liquid-gas ([3]; 303.15 K) | viscosity ([3]; 303.15 K) | surface tension liquid-gas ([3]; 308.15 K) | viscosity ([3]; 308.15 K) | surface tension liquid-gas ([3]; 313.15 K) | viscosity ([3]; 313.15 K) | Structure (SMILES) |
| --- | --- | --- | --- | --- | --- | --- | --- | --- | --- | --- | --- | --- | --- | --- | --- | --- | --- |
| 28.35 ± 0.52 mN/m | 11.83 ± 0.25 mPa·s | 27.29 ± 0.52 mN/m | 9.754 ± 0.2 mPa·s | 26.23 ± 0.52 mN/m | 8.135 ± 0.17 mPa·s | 25.17 ± 0.52 mN/m | 6.842 ± 0.14 mPa·s | 1.437 ± 0.001 | – | – | – | – | – | – | – | – | CCCCCCCCCCO [decan-1-ol] |
| 35.2 ± 0.5 mN/m | 0.8162 ± 0.017 mPa·s | 34.1 ± 0.5 mN/m | 0.7678 ± 0.016 mPa·s | 33 ± 0.5 mN/m | 0.7262 ± 0.016 mPa·s | 32 ± 0.5 mN/m | 0.678 ± 0.015 mPa·s | 1.429 ± 0.001 | – | – | – | – | – | – | – | – | CN(C)C=O [dimethylformamide] |
| – | – | – | – | – | – | – | – | – | 35.2 ± 0.5 mN/m | 0.8162 ± 0.017 mPa·s | 34.1 ± 0.5 mN/m | 0.7678 ± 0.016 mPa·s | 33 ± 0.5 mN/m | 0.7262 ± 0.016 mPa·s | 32 ± 0.5 mN/m | 0.678 ± 0.015 mPa·s | CN(C)C=O [dimethylformamide] + CCCCCCCCCCO |
| – | – | – | – | – | – | – | – | – | 35.2 ± 0.5 mN/m | 0.8162 ± 0.017 mPa·s | 34.1 ± 0.5 mN/m | 0.7678 ± 0.016 mPa·s | 33 ± 0.5 mN/m | 0.7262 ± 0.016 mPa·s | 32 ± 0.5 mN/m | 0.678 ± 0.015 mPa·s | CN(C)C=O [dimethylformamide] + CCCCCCCCCO |
| – | – | – | – | – | – | – | – | – | 35.2 ± 0.5 mN/m | 0.8162 ± 0.017 mPa·s | 34.1 ± 0.5 mN/m | 0.7678 ± 0.016 mPa·s | 33 ± 0.5 mN/m | 0.7262 ± 0.016 mPa·s | 32 ± 0.5 mN/m | 0.678 ± 0.015 mPa·s | CN(C)C=O [dimethylformamide] + CCCCCCCCO |
| 27.58 ± 0.57 mN/m | 9.715 ± 0.22 mPa·s | 26.53 ± 0.57 mN/m | 7.927 ± 0.18 mPa·s | 25.49 ± 0.56 mN/m | 6.664 ± 0.15 mPa·s | 24.44 ± 0.56 mN/m | 5.645 ± 0.13 mPa·s | 1.433 ± 0.001 | – | – | – | – | – | – | – | – | CCCCCCCCCO [nonan-1-ol] |
| 27.47 ± 0.52 mN/m | 7.661 ± 0.16 mPa·s | 26.42 ± 0.52 mN/m | 6.402 ± 0.13 mPa·s | 25.41 ± 0.52 mN/m | 5.425 ± 0.11 mPa·s | 24.38 ± 0.52 mN/m | 4.628 ± 0.097 mPa·s | 1.429 ± 0.001 | – | – | – | – | – | – | – | – | CCCCCCCCO [octan-1-ol] |
